Consider seven compounds from US20090045056A1, “Stable three enzyme creatinine biosensor” (priority 2004, published 2009).

The target of test [1] is T1, sarcosine oxidase (Bacillus sp., UniProt P40859).
T1 sequence (P40859 1-390): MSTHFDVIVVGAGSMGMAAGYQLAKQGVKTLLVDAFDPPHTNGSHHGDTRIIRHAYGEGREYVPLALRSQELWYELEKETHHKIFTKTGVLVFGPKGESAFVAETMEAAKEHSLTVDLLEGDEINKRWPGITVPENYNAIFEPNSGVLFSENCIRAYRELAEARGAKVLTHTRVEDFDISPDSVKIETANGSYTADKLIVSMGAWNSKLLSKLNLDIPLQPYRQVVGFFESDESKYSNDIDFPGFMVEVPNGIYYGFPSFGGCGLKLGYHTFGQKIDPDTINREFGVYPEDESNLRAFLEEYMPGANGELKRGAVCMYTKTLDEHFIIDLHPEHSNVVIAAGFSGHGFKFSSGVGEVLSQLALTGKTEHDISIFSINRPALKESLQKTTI
The note with it: cited from earlier work; for Ki: inhibitor of sarcosine oxidase.

Test [2] concerns creatine amidinohydrolase. Kind of test: Additives to prevent silver inhibition of creatine amidinohydrolase. It is filed as biochemical, Actinobacilus sp. Conditions: 50 mM additive, pre-incubation. How it is done: Creatine amidinohydrolase (1.0 mg/ml) was prepared in solution with either 50 mM EDT A, 50 mM EGT A, 50 mM mercaptoethanol, 50 mM DTT or 50 mM cysteine with 20 mM Tris, pH 7.5.

Test [3] addresses sarcosine oxidase (Arthrobacter sp., UniProt P40873). Conditions: 1 nM to 1 mM silver nitrate, various incubation times, residual activity assayed in absence of silver.
Description: Typically, an enzyme solution (0.05 mL) was incubated with a mixture (1.0 mL total) of 95 mM sarcosine, 0.47 mM 4-aminoantipyrene, 2 mM phenol, 0.045% Triton X-100, 50 mM sodium phosphate (pH 8.0) and 5 units/mL of horseradish peroxidase at 37° C. for 10 minutes. The reaction was terminated by addition of 2.0 mL of 0.25% SDS solution and the absorbance at 500 nm was measured. One unit was defined as the amount of enzyme that catalyzed the oxidation of 1). mol of substrate per minute.
Samples were removed periodically and assayed using the end point assay for sarcosine oxidase activity.
The subject of test [4] is creatine amidinohydrolase. The note with it: 5-100 μM silver nitrate.
Description: Creatine amidinohydrolase activity was monitored using a colorimetric assay that measures urea formation from the hydrolysis of creatine (Tsuchida and Yoda, Clin. Chem. 29:51-55 (1983)). An enzyme solution (0.1 mL) was incubated with a mixture (0.90 mL) of 100 mM creatine in sodium phosphate buffer (50 mM, pH 7.5) at 37° C. for 10 minutes. The reaction was stopped by adding 2.0 mL of a solution containing Ehrlich's reagent (2.0 g of p-dimethyl aminobenzaldehyde in 100 mL of dimethyl sulfoxide plus 15 mL of concentrated HCl). The solution was incubated for 20 minutes at room temperature and the absorbance at 435 nm was measured. One unit was defined as the amount of enzyme that catalyzes the hydrolysis of 1 μmol of substrate per minute.
Samples were removed periodically and assayed using the end point assay. […] After 10 minutes of incubation, the stop solution (p-dimethyl benzaldehyde solution) was added.
Test [5] has as its system creatinine amidohydrolase. The note with it: silver nitrate from 1 nM, 5 min to 1 hr incubation.
Description: An enzyme solution (0.1 mL) was incubated with a mixture (0.90 mL) of 100 mM creatine in mM soditim phosphate (pH 7.5) at 37° C. for 10 minutes. After 10 minutes, the creatine/enzyme mixture (0.1 mL) was added to 0.5 M sodium hydroxide (1.9 mL) and 1% picric acid (1.0 mL). This solution was incubated for 20 minutes at room temperature and the absorbance at 520 nm was measured. One unit was defined as the amount of enzyme which catalyzed the formation of 1 μmol of creatinine per minute.
Samples were removed periodically and assayed using the end point assay.

sarcosine oxidase (Arthrobacter sp., UniProt P40873), sequence (P40873 whole entry): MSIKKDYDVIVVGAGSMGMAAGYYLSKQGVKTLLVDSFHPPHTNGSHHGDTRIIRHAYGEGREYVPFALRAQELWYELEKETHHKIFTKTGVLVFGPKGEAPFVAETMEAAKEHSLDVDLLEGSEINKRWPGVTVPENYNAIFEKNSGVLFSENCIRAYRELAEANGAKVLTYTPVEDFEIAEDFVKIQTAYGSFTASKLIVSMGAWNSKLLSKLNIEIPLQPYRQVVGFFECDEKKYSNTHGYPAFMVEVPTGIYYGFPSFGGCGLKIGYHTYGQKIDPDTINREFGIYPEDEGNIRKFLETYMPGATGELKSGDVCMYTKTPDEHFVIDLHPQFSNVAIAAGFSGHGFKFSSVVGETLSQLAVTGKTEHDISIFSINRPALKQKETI

For the compound `CNCC(=O)O` [sarcosine], the Km (in general, the concentration of substrate that gives half-maximal velocity) in test [1] (native substrate of sarcosine oxidase) was 600 µM. As for `OCCS` [mercaptoethanol], in test [2], the “prevention of silver inhibition of creatine amidinohydrolase” value was “effectively prevented”.

Turning to `O=[N+]([O-])[O-].[Ag+]` [silver nitrate], the “inhibition of sarcosine oxidase by silver ions” value in test [3] was “effective irreversible inhibitor”. The “inhibition of creatine amidinohydrolase by silver ions” value in test [4] is reported as “completely inhibiting enzyme activity”. In addition, the “inhibition of creatinine amidohydrolase by silver ions” value in test [5] was “effective inhibitor of creatinine amidinohydrolase at high concentrations”. As for `O[C@@H](CS)[C@@H](O)CS` [DTT], the “prevention of silver inhibition of creatine amidinohydrolase” value in test [2] is “effectively prevented”. For `O=C(O)c1ccc[nH]1` [Pyrrole-2-carboxylic acid], in test [1], the Ki (as a rule, the equilibrium dissociation constant of an inhibitor or competing ligand from its target) is 1.37 mM. Regarding `CSCC(=O)O` [(methylthio)acetic acid], the inhibitory constant (Ki) in test [1] is 2.6 mM. In the case of `N[C@@H](CS)C(=O)O` [cysteine], in test [2], the “prevention of silver inhibition of creatine amidinohydrolase” value is on record as “effectively prevented”.
